From ChEMBL document CHEMBL5523679, “Discovery of 1,2,3-triazole incorporated indole-piperazines as potent antitubercular agents: Design, synthesis, in vitro biological evaluation, molecular docking and ADME studies” (Bioorg Med Chem, 2024) come the findings set out here.

Values after ≈ are worked out from the molar mass of the structure shown.

System in the first data set: not listed separately
Put plainly: Cytotoxicity against African green monkey Vero cells assessed as inhibition of cell growth at 6.25 ug/ml measured after 72 hrs by MTT assay relative to control. It counts as toxicity, cell-based. Particulars: chlorocebus sabaeus, at 6.25 µg/mL. A general note: Tetrazolium dyes change colour on reduction, which living cells bring about.
The inhibition is the relative decrease from the control value, in per cent. For the compound `O=C(CCc1cn(Cc2cn(Cc3ccc(F)cc3)nn2)c2ccccc12)N1CCN(C(=O)c2ccnc(Cl)c2)CC1`, the inhibition at 72 h, 6.25 ug/ml is 11.8%.
Still for that read-out and setting: in the case of `O=C(CCc1cn(Cc2cn(Cc3ccc(F)cc3)nn2)c2ccccc12)N1CCN(C(=O)c2ccc(Cl)cc2)CC1` it was 7.9%; in that of `O=C(CCc1cn(Cc2cn(Cc3ccc(F)cc3)nn2)c2ccccc12)N1CCN(C(=O)c2cccnc2Cl)CC1`, 10.1%; in that of `O=C(Cc1cn(Cc2ccc(F)cc2)c2ccccc12)N1CCN(C(=O)c2ccc(F)cc2)CC1`, 33.8%.
On the same count and under the same terms, in the case of `O=C(CCc1cn(Cc2cn(Cc3ccc(F)cc3)nn2)c2ccccc12)N1CCN(C(=O)c2ccncc2F)CC1` it was 8.5%.

System in a further data set: not listed separately
Put plainly: Cytotoxicity against African green monkey Vero cells measured after 72 hrs by MTT assay. Type of data set: toxicity, cell-based. Particulars: chlorocebus sabaeus.
As a reminder, the CC50 is the concentration at which the toxic effect on the cells reaches its halfway point. In the case of `O=C(CCc1cn(Cc2cn(Cc3ccc(F)cc3)nn2)c2ccccc12)N1CCN(C(=O)c2ccnc(Cl)c2)CC1`, the CC50 at 72 h amounted to 1080 µg/mL (≈ 1840 µM).
`O=C(CCc1cn(Cc2cn(Cc3ccc(F)cc3)nn2)c2ccccc12)N1CCN(C(=O)c2ccc(Cl)cc2)CC1`: the CC50 at 72 h came out at 986 µg/mL (≈ 1680 µM).
On to `O=C(CCc1cn(Cc2cn(Cc3ccc(F)cc3)nn2)c2ccccc12)N1CCN(C(=O)c2cccnc2Cl)CC1`, for which it took 946 µg/mL (≈ 1610 µM) to reach half-maximal cytotoxicity (CC50 at 72 h).
`O=C(Cc1cn(Cc2ccc(F)cc2)c2ccccc12)N1CCN(C(=O)c2ccc(F)cc2)CC1` displayed a CC50 at 72 h of 448 µg/mL (≈ 946 µM).
The same measure, in the same setting: the same measure for `O=C(CCc1cn(Cc2cn(Cc3ccc(F)cc3)nn2)c2ccccc12)N1CCN(C(=O)c2ccncc2F)CC1`: 882 µg/mL (≈ 1550 µM).

The test system of the next data set is Staphylococcus aureus. Put plainly: Antibacterial activity against Staphylococcus aureus assessed as inhibition zone at 75 ug/ml by diffusion method. Conditions: read-out: IZ. It counts as functional.
Regarding `O=C(CCc1cn(Cc2cn(Cc3ccc(F)cc3)nn2)c2ccccc12)N1CCN(C(=O)c2ccnc(Cl)c2)CC1`, the zone of inhibition at 75 µg/mL was found to be 18 mm.
On to `O=C(CCc1cn(Cc2cn(Cc3ccc(F)cc3)nn2)c2ccccc12)N1CCN(C(=O)c2ccc(Cl)cc2)CC1`, for which the zone of inhibition at 75 µg/mL is 18 mm.
The same measure, in the same setting: the same measure for `O=C(CCc1cn(Cc2cn(Cc3ccc(F)cc3)nn2)c2ccccc12)N1CCN(C(=O)c2cccnc2Cl)CC1`: 18 mm.
Consider `O=C(Cc1cn(Cc2ccc(F)cc2)c2ccccc12)N1CCN(C(=O)c2ccc(F)cc2)CC1`, for which the zone of inhibition at 75 µg/mL was determined as 21 mm.
As to `O=C(CCc1cn(Cc2cn(Cc3ccc(F)cc3)nn2)c2ccccc12)N1CCN(C(=O)c2ccncc2F)CC1`, the zone of inhibition at 75 µg/mL stood at 18 mm.

In another data set the test system is Mycobacterium tuberculosis. Put plainly: Antimycobacterial activity against Mycobacterium tuberculosis H37Rv assessed as bacterial growth inhibition by microplate Alamar blue assay. Type of data set: functional.
Details: not given
On the technique in general: Alamar Blue is a resazurin reagent that responds to reducing activity.
What is called MIC is the lowest concentration that inhibits growth of the organism. Regarding `O=C(CCc1cn(Cc2cn(Cc3ccc(F)cc3)nn2)c2ccccc12)N1CCN(C(=O)c2ccnc(Cl)c2)CC1`, the MIC amounted to 2.7 µM.
Same read-out and setting: the same measure for `O=C(CCc1cn(Cc2cn(Cc3ccc(F)cc3)nn2)c2ccccc12)N1CCN(C(=O)c2ccc(Cl)cc2)CC1`: 10.7 µM.
Same read-out and setting: in the case of `O=C(CCc1cn(Cc2cn(Cc3ccc(F)cc3)nn2)c2ccccc12)N1CCN(C(=O)c2cccnc2Cl)CC1` it was 5.3 µM; in that of `O=C(Cc1cn(Cc2ccc(F)cc2)c2ccccc12)N1CCN(C(=O)c2ccc(F)cc2)CC1`, 13.2 µM.
The same measure, in the same setting: in the case of `O=C(CCc1cn(Cc2cn(Cc3ccc(F)cc3)nn2)c2ccccc12)N1CCN(C(=O)c2ccncc2F)CC1` it was 5.5 µM.

System in another data set: not listed separately
Put plainly: Selectivity index, ratio of CC50 for African green monkey Vero cells to MIC for Mycobacterium tuberculosis H37Rv. Type of data set: toxicity. Conditions: read-out: Selectivity Index.
Regarding `O=C(CCc1cn(Cc2cn(Cc3ccc(F)cc3)nn2)c2ccccc12)N1CCN(C(=O)c2ccnc(Cl)c2)CC1`, the selectivity ratio was 673.
Same read-out and setting: the same measure for `O=C(CCc1cn(Cc2cn(Cc3ccc(F)cc3)nn2)c2ccccc12)N1CCN(C(=O)c2ccc(Cl)cc2)CC1`: 158; for `O=C(CCc1cn(Cc2cn(Cc3ccc(F)cc3)nn2)c2ccccc12)N1CCN(C(=O)c2cccnc2Cl)CC1`: 303; for `O=C(Cc1cn(Cc2ccc(F)cc2)c2ccccc12)N1CCN(C(=O)c2ccc(F)cc2)CC1`: 71.7.
Still for that read-out and setting: in the case of `O=C(CCc1cn(Cc2cn(Cc3ccc(F)cc3)nn2)c2ccccc12)N1CCN(C(=O)c2ccncc2F)CC1` it was 283.

The subject of another data set is Pseudomonas aeruginosa. Put plainly: Antibacterial activity against Pseudomonas aeruginosa assessed as inhibition zone at 50 ug/ml by diffusion method. Type of data set: functional. Conditions: read-out: IZ.
Turning to `O=C(CCc1cn(Cc2cn(Cc3ccc(F)cc3)nn2)c2ccccc12)N1CCN(C(=O)c2ccnc(Cl)c2)CC1`, the zone of inhibition at 50 µg/mL was found to be 13 mm.
On the same count and under the same terms, the same measure for `O=C(CCc1cn(Cc2cn(Cc3ccc(F)cc3)nn2)c2ccccc12)N1CCN(C(=O)c2ccc(Cl)cc2)CC1`: 12 mm; for `O=C(CCc1cn(Cc2cn(Cc3ccc(F)cc3)nn2)c2ccccc12)N1CCN(C(=O)c2cccnc2Cl)CC1`: 10 mm; for `O=C(Cc1cn(Cc2ccc(F)cc2)c2ccccc12)N1CCN(C(=O)c2ccc(F)cc2)CC1`: 10 mm.
For `O=C(CCc1cn(Cc2cn(Cc3ccc(F)cc3)nn2)c2ccccc12)N1CCN(C(=O)c2ccncc2F)CC1`, the zone of inhibition at 50 µg/mL came out at 15 mm.

The test system of another data set is Staphylococcus aureus. Put plainly: Antibacterial activity against Staphylococcus aureus assessed as inhibition zone at 25 ug/ml by diffusion method. It counts as functional. Particulars: read-out: IZ.
As to `O=C(CCc1cn(Cc2cn(Cc3ccc(F)cc3)nn2)c2ccccc12)N1CCN(C(=O)c2ccnc(Cl)c2)CC1`, the zone of inhibition at 25 µg/mL worked out at 13 mm.
Still for that read-out and setting: the same measure for `O=C(CCc1cn(Cc2cn(Cc3ccc(F)cc3)nn2)c2ccccc12)N1CCN(C(=O)c2ccc(Cl)cc2)CC1`: 6 mm; for `O=C(CCc1cn(Cc2cn(Cc3ccc(F)cc3)nn2)c2ccccc12)N1CCN(C(=O)c2cccnc2Cl)CC1`: 10 mm.
Still for that read-out and setting: in the case of `O=C(Cc1cn(Cc2ccc(F)cc2)c2ccccc12)N1CCN(C(=O)c2ccc(F)cc2)CC1` it was 15 mm; in that of `O=C(CCc1cn(Cc2cn(Cc3ccc(F)cc3)nn2)c2ccccc12)N1CCN(C(=O)c2ccncc2F)CC1`, 10 mm.

The next data set relates to Escherichia coli. Put plainly: Antibacterial activity against Escherichia coli assessed as inhibition zone at 25 ug/ml by diffusion method. It counts as functional. Conditions: read-out: IZ.
For `O=C(CCc1cn(Cc2cn(Cc3ccc(F)cc3)nn2)c2ccccc12)N1CCN(C(=O)c2ccc(Cl)cc2)CC1`, the zone of inhibition at 25 µg/mL was found to be 13 mm.
Same read-out and setting: the same measure for `O=C(CCc1cn(Cc2cn(Cc3ccc(F)cc3)nn2)c2ccccc12)N1CCN(C(=O)c2cccnc2Cl)CC1`: 13 mm.

The test system of the next data set is Pseudomonas aeruginosa. As to the kind of experiment: Antibacterial activity against Pseudomonas aeruginosa assessed as inhibition zone at 25 ug/ml by diffusion method. Type of data set: functional. Particulars: read-out: IZ.
As to `O=C(CCc1cn(Cc2cn(Cc3ccc(F)cc3)nn2)c2ccccc12)N1CCN(C(=O)c2ccnc(Cl)c2)CC1`, the zone of inhibition at 25 µg/mL was 10 mm.
Same read-out and setting: in the case of `O=C(CCc1cn(Cc2cn(Cc3ccc(F)cc3)nn2)c2ccccc12)N1CCN(C(=O)c2ccncc2F)CC1` it was 10 mm.

The next data set deals with Staphylococcus aureus. Put plainly: Antibacterial activity against Staphylococcus aureus assessed as inhibition zone at 50 ug/ml by diffusion method. It counts as functional. Particulars: read-out: IZ.
Regarding `O=C(CCc1cn(Cc2cn(Cc3ccc(F)cc3)nn2)c2ccccc12)N1CCN(C(=O)c2ccnc(Cl)c2)CC1`, the zone of inhibition at 50 µg/mL turned out to be 13 mm.
With `O=C(CCc1cn(Cc2cn(Cc3ccc(F)cc3)nn2)c2ccccc12)N1CCN(C(=O)c2ccc(Cl)cc2)CC1`, the zone of inhibition at 50 µg/mL stood at 15 mm.
On the same count and under the same terms, the same measure for `O=C(CCc1cn(Cc2cn(Cc3ccc(F)cc3)nn2)c2ccccc12)N1CCN(C(=O)c2cccnc2Cl)CC1`: 15 mm; for `O=C(Cc1cn(Cc2ccc(F)cc2)c2ccccc12)N1CCN(C(=O)c2ccc(F)cc2)CC1`: 18 mm; for `O=C(CCc1cn(Cc2cn(Cc3ccc(F)cc3)nn2)c2ccccc12)N1CCN(C(=O)c2ccncc2F)CC1`: 15 mm.

The test system of a further data set is Pseudomonas aeruginosa. Put plainly: Antibacterial activity against Pseudomonas aeruginosa assessed as inhibition zone at 75 ug/ml by diffusion method. It counts as functional. Particulars: read-out: IZ.
In the case of `O=C(CCc1cn(Cc2cn(Cc3ccc(F)cc3)nn2)c2ccccc12)N1CCN(C(=O)c2ccnc(Cl)c2)CC1`, the zone of inhibition at 75 µg/mL came to 15 mm.
Same read-out and setting: in the case of `O=C(CCc1cn(Cc2cn(Cc3ccc(F)cc3)nn2)c2ccccc12)N1CCN(C(=O)c2ccc(Cl)cc2)CC1` it was 15 mm; in that of `O=C(CCc1cn(Cc2cn(Cc3ccc(F)cc3)nn2)c2ccccc12)N1CCN(C(=O)c2cccnc2Cl)CC1`, 13 mm.
Same read-out and setting: in the case of `O=C(Cc1cn(Cc2ccc(F)cc2)c2ccccc12)N1CCN(C(=O)c2ccc(F)cc2)CC1` it was 13 mm; in that of `O=C(CCc1cn(Cc2cn(Cc3ccc(F)cc3)nn2)c2ccccc12)N1CCN(C(=O)c2ccncc2F)CC1`, 18 mm.

The test system of the next data set is Escherichia coli. As to the kind of experiment: Antibacterial activity against Escherichia coli assessed as inhibition zone at 75 ug/ml by diffusion method. It counts as functional. Conditions: read-out: IZ.
As to `O=C(CCc1cn(Cc2cn(Cc3ccc(F)cc3)nn2)c2ccccc12)N1CCN(C(=O)c2ccnc(Cl)c2)CC1`, the zone of inhibition at 75 µg/mL was determined as 20 mm.
On the same count and under the same terms, the same measure for `O=C(CCc1cn(Cc2cn(Cc3ccc(F)cc3)nn2)c2ccccc12)N1CCN(C(=O)c2ccc(Cl)cc2)CC1`: 23 mm.
Same read-out and setting: in the case of `O=C(CCc1cn(Cc2cn(Cc3ccc(F)cc3)nn2)c2ccccc12)N1CCN(C(=O)c2cccnc2Cl)CC1` it was 25 mm; in that of `O=C(Cc1cn(Cc2ccc(F)cc2)c2ccccc12)N1CCN(C(=O)c2ccc(F)cc2)CC1`, 18 mm; in that of `O=C(CCc1cn(Cc2cn(Cc3ccc(F)cc3)nn2)c2ccccc12)N1CCN(C(=O)c2ccncc2F)CC1`, 20 mm.

The subject of the next data set is Escherichia coli. Put plainly: Antibacterial activity against Escherichia coli assessed as inhibition zone at 50 ug/ml by diffusion method. Type of data set: functional. Conditions: read-out: IZ.
Regarding `O=C(CCc1cn(Cc2cn(Cc3ccc(F)cc3)nn2)c2ccccc12)N1CCN(C(=O)c2ccnc(Cl)c2)CC1`, the zone of inhibition at 50 µg/mL stood at 18 mm.
On the same count and under the same terms, the same measure for `O=C(CCc1cn(Cc2cn(Cc3ccc(F)cc3)nn2)c2ccccc12)N1CCN(C(=O)c2ccc(Cl)cc2)CC1`: 20 mm; for `O=C(CCc1cn(Cc2cn(Cc3ccc(F)cc3)nn2)c2ccccc12)N1CCN(C(=O)c2cccnc2Cl)CC1`: 23 mm.
`O=C(Cc1cn(Cc2ccc(F)cc2)c2ccccc12)N1CCN(C(=O)c2ccc(F)cc2)CC1`: the zone of inhibition at 50 µg/mL turned out to be 15 mm.
Still for that read-out and setting: in the case of `O=C(CCc1cn(Cc2cn(Cc3ccc(F)cc3)nn2)c2ccccc12)N1CCN(C(=O)c2ccncc2F)CC1` it was 15 mm.
